Assay results reported in PMC7504677, “Impact of N-Alkylamino Substituents on Serotonin Receptor (5-HTR) Affinity and Phosphodiesterase 10A (PDE10A) Inhibition of Isoindole-1,3-dione Derivatives” (Molecules, 2020).

How the values were obtained:
[1] = molecular target: 5-HT7 receptor (Homo sapiens, UniProt P34969); experiment: radioligand binding assay, [3H]-LSD; details: read-out: 5-HT7 1 µM ± SEM (% of control specific binding)
Method: (§1) Briefly: binding experiments were conducted in 96-well microplates in a total final volume of 250 μL of appropriate buffers. Reaction mix included 50 μL solution of test compound, 50 μL of radioligand ([^3H]8-OH-DPAT for 5-HT1A, and [^3H]-LSD for 5-HT7, respectively) and 150 μL of diluted membranes (see description and Table S2 in Supporting Materials). Specific assay conditions for each receptor are described elsewhere. The radioactivity was measured in a MicroBeta2 scintillation counter (PerkinElmer, USA). Each compound was tested in the assay as duplicate samples at 1 µM final concentrations. Results were expressed as percent inhibition of specific binding.

[2] = molecular target: T1, 5-HT1A receptor (Homo sapiens, UniProt P08908); experiment: radioligand binding assay, [3H]8-OH-DPAT; details: read-out: 5-HT1A 1 µM ± SEM (% of control specific binding)
T1 sequence (P08908 1-422): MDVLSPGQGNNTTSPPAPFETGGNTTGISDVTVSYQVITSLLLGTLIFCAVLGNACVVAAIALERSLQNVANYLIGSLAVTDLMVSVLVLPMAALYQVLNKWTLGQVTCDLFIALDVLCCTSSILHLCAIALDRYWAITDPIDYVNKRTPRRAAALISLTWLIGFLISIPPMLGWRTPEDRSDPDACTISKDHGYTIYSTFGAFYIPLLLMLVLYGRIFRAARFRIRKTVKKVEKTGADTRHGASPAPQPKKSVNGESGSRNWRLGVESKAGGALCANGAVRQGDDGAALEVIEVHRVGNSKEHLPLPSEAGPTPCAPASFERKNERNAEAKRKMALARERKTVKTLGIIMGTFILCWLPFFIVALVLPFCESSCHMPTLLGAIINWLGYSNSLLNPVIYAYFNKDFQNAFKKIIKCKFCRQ
Method: as §1

[3] = molecular target: PDE10A (Homo sapiens, UniProt Q9Y233); experiment: luminescence PDE inhibition assay (PDElight HTS cAMP phosphodiesterase assay kit); format: biochemical; details: for inhibition at 3 µM / inhibition at 10 µM: 1 h, percentage of inhibition respective to vehicle control (DMSO); for IC50: SEM of three independent experiments performed in duplicate
Method: Test and reference compounds were dissolved in dimethyl sulfoxide (DMSO) at a concentration of 1 mM and further diluted in assay buffer in order to obtain the final concentration of compounds: 10 µM and 3 µM, respectively. All reactions were carried out at 37 °C in white, half-area 96-well plates (Perkin Elmer, Waltham, MA, USA). The inhibition of PDE 10A enzyme was measured using the PDElight HTS cAMP phosphodiesterase assay kit (Lonza) according to the manufacturer’s recommendations. 2.5 U of PDE 10A enzyme was preincubated either with DMSO (vehicle control) or compound for 20 min before incubation with the substrate, cAMP (final concentration 1.25 µM), for 1 h. Then, PDELight AMP Detection Reagent was added. After 10 min incubation, the luminescence was measured in a multifunction plate reader (POLARstar Omega, BMG Labtech, Ortenberg, Germany).

Chain of 5-HT7 receptor (P34969 whole entry): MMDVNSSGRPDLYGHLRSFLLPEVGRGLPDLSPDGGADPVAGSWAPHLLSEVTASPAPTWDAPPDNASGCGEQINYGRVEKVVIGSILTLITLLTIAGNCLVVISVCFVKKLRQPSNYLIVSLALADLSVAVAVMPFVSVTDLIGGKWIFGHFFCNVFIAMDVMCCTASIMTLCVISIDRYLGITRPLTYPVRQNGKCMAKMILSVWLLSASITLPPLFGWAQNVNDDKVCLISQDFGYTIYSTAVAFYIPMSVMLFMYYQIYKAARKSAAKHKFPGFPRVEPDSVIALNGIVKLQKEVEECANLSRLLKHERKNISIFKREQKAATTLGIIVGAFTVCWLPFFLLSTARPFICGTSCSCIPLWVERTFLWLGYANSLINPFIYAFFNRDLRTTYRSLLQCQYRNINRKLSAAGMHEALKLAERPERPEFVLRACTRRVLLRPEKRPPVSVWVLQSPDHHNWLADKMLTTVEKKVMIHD
Chain of PDE10A (Q9Y233 whole entry, species assumed): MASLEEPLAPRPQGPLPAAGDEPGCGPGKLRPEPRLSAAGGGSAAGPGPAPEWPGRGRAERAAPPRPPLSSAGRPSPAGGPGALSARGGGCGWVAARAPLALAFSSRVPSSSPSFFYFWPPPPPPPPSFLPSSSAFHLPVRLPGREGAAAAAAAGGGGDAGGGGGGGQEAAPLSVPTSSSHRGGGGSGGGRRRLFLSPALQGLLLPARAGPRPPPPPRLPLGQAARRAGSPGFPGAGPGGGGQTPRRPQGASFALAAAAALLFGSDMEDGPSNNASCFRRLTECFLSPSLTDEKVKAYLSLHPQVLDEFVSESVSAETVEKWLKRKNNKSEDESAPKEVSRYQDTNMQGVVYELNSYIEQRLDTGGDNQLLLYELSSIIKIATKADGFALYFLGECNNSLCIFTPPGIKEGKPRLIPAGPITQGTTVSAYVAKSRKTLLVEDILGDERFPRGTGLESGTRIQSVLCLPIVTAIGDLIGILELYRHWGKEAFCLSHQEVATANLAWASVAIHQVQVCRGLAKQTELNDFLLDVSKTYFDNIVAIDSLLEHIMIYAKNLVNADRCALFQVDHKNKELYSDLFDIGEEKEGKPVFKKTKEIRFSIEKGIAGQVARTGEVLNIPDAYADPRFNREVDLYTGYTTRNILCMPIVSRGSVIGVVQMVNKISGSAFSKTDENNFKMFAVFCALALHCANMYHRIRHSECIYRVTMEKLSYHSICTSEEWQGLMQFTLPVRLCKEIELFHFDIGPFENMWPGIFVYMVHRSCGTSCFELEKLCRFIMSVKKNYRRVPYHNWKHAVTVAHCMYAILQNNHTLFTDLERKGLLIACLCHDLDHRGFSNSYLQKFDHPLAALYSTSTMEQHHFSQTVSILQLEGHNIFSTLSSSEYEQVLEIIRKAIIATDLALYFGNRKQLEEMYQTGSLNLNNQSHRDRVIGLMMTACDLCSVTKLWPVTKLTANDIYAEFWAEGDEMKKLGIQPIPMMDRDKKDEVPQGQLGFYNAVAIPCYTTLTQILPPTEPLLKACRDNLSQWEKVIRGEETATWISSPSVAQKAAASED

COc1cc2c(cc1OC)CN(CCN1C(=O)c3cccc(OC)c3C1=O)CC2 [Compound 3, 2-[2-(6,7-Dimethoxy-3,4-dihydroisoquinolin-2(1H)-yl)ethyl]-4-methoxy-1H-isoindole-1,3(2H)-dione]
inhibition at 1 µM [1]: 0%
inhibition at 1 µM [2]: 27 ± 3%
inhibition at 3 µM [3]: 0%
inhibition at 10 µM [3]: 0%
melting point: 108 to 109 °C

COc1cccc2c1C(=O)N(CCc1c[nH]cn1)C2=O [Compound 14, 2-[2-(1H-Imidazol-4-yl)ethyl]-4-methoxy-1H-isoindole-1,3(2H)-dione]
inhibition at 1 µM [1]: 0%
inhibition at 1 µM [2]: 21 ± 1%
inhibition at 3 µM [3]: 0%
inhibition at 10 µM [3]: 0%
melting point: 227 to 228 °C

O=C1c2ccccc2C(=O)N1CCCCc1nc2ccccc2[nH]1 [Compound 22, 2-[4-(1H-Benzimidazol-2-yl)butyl]-1H-isoindole-1,3(2H)-dione]
inhibition at 1 µM [1]: 15 ± 2%
inhibition at 1 µM [2]: 20 ± 3%
inhibition at 3 µM [3]: 47%
inhibition at 10 µM [3]: 73%
IC50 [3]: 5.65 ± 0.495 µM
melting point: 179 to 180 °C

COc1cccc2c1C(=O)N(CCN1CCC3CCCCC3C1)C2=O (centres unmarked) [Compound 5, 2-[2-(Octahydroisoquinolin-2(1H)-yl)ethyl]-4-methoxy-1H-isoindole-1,3(2H)-dione]
inhibition at 1 µM [1]: 0%
inhibition at 1 µM [2]: 25 ± 3%
inhibition at 3 µM [3]: 0%
inhibition at 10 µM [3]: 0%
melting point: 145 to 146 °C

COc1cccc2c1C(=O)N(CCCCCc1nc3ccccc3[nH]1)C2=O [Compound 19, 2-[5-(1H-Benzimidazol-2-yl)pentyl]-4-methoxy-1H-isoindole-1,3(2H)-dione]
inhibition at 1 µM [1]: 6%
inhibition at 1 µM [2]: 28 ± 2%
inhibition at 3 µM [3]: 52%
inhibition at 10 µM [3]: 75%
IC50 [3]: 4.31 ± 0.365 µM
melting point: 108 to 109 °C

COc1cccc2c1C(=O)N(CCCN1CCC3CCCCC3C1)C2=O (centres unmarked) [Compound 8, 2-[3-(Octahydroisoquinolin-2(1H)-yl)propyl]-4-methoxy-1H-isoindole-1,3(2H)-dione]
inhibition at 1 µM [1]: 0%
inhibition at 1 µM [2]: 28 ± 3%
inhibition at 3 µM [3]: 7%
inhibition at 10 µM [3]: 7%
melting point: 103 to 104 °C

COc1cc2c(cc1OC)CN(CCCN1C(=O)c3cccc(OC)c3C1=O)CC2 [Compound 6, 2-[3-(6,7-Dimethoxy-3,4-dihydroisoquinolin-2(1H)-yl)propyl]-4-methoxy-1H-isoindole-1,3(2H)-dione]
inhibition at 1 µM [1]: 0%
inhibition at 1 µM [2]: 32 ± 4%
inhibition at 3 µM [3]: 0%
inhibition at 10 µM [3]: 0%
melting point: 107 to 109 °C

COc1cccc2c1C(=O)N(Cc1nc3ccccc3[nH]1)C2=O [Compound 11, 2-(1H-Benzimidazol-2-ylmethyl)-4-methoxy-1H-isoindole-1,3(2H)-dione]
inhibition at 1 µM [1]: 0%
inhibition at 1 µM [2]: 39 ± 3%
inhibition at 3 µM [3]: 7%
inhibition at 10 µM [3]: 15%
melting point: 239 to 240 °C

COc1cccc2c1C(=O)N(Cc1ccccn1)C2=O [Compound 10, 4-Methoxy-2-(pyridin-2-ylmethyl)-1H-isoindole-1,3(2H)-dione]
inhibition at 1 µM [1]: 0%
inhibition at 1 µM [2]: 10 ± 1%
inhibition at 3 µM [3]: 0%
inhibition at 10 µM [3]: 0%
melting point: 144 to 145 °C

COc1cccc2c1C(=O)N(CCCN1CCc3ccccc3C1)C2=O [Compound 7, 2-[3-(3,4-Dihydroisoquinolin-2(1H)-yl)propyl]-4-methoxy-1H-isoindole-1,3(2H)-dione]
inhibition at 1 µM [1]: 51 ± 2%
inhibition at 1 µM [2]: 33 ± 2%
inhibition at 3 µM [3]: 18%
inhibition at 10 µM [3]: 19%
melting point: 92 to 93 °C

O=C1c2ccccc2C(=O)N1CCCc1nc2ccccc2[nH]1 [Compound 21, 2-[3-(1H-Benzimidazol-2-yl)propyl]-1H-isoindole-1,3(2H)-dione]
inhibition at 1 µM [1]: 14 ± 2%
inhibition at 1 µM [2]: 27 ± 2%
inhibition at 3 µM [3]: 16%
inhibition at 10 µM [3]: 45%
melting point: 190 to 191 °C

COc1cccc2c1C(=O)N(CCCc1nc3ccccc3[nH]1)C2=O [Compound 17, 2-[3-(1H-Benzimidazol-2-yl)propyl]-4-methoxy-1H-isoindole-1,3(2H)-dione]
inhibition at 1 µM [1]: 10 ± 3%
inhibition at 1 µM [2]: 16 ± 5%
inhibition at 3 µM [3]: 73%
inhibition at 10 µM [3]: 86%
IC50 [3]: 1.001 ± 0.009 µM
melting point: 217 to 218 °C

O=C1c2ccccc2C(=O)N1CCCCCc1nc2ccccc2[nH]1 [Compound 23, 2-[5-(1H-Benzimidazol-2-yl)pentyl]-1H-isoindole-1,3(2H)-dione]
inhibition at 1 µM [1]: 34 ± 2%
inhibition at 1 µM [2]: 48 ± 3%
inhibition at 3 µM [3]: 26%
inhibition at 10 µM [3]: 58%
melting point: 168 to 169 °C

COc1cccc2c1C(=O)N(CCc1nc3ccccc3[nH]1)C2=O [Compound 15, 2-[2-(1H-Benzimidazol-2-yl)ethyl]-4-methoxy-1H-isoindole-1,3(2H)-dione]
inhibition at 1 µM [1]: 0%
inhibition at 1 µM [2]: 44 ± 5%
inhibition at 3 µM [3]: 40%
inhibition at 10 µM [3]: 70%
IC50 [3]: 6.71 ± 0.195 µM
melting point: 197 to 198 °C

COc1cccc2c1C(=O)N(CCc1ccccn1)C2=O [Compound 13, 4-Methoxy-2-[2-(pyridin-2-yl)ethyl]-1H-isoindole-1,3(2H)-dione]
inhibition at 1 µM [1]: 0%
inhibition at 1 µM [2]: 59 ± 4%
inhibition at 3 µM [3]: 0%
inhibition at 10 µM [3]: 0%
melting point: 155 to 157 °C

COc1cccc2c1C(=O)N(CCc1ccccc1)C2=O [Compound 12, 4-Methoxy-2-(2-phenylethyl)-1H-isoindole-1,3(2H)-dione]
inhibition at 1 µM [1]: 0%
inhibition at 1 µM [2]: 13 ± 2%
inhibition at 3 µM [3]: 5%
inhibition at 10 µM [3]: 10%
melting point: 123 to 124 °C

COc1cccc2c1C(=O)N(CCN1CCc3ccccc3C1)C2=O [Compound 4, 2-[2-(3,4-Dihydroisoquinolin-2(1H)-yl)ethyl]-4-methoxy-1H-isoindole-1,3(2H)-dione]
inhibition at 1 µM [1]: 0%
inhibition at 1 µM [2]: 12 ± 4%
inhibition at 3 µM [3]: 0%
inhibition at 10 µM [3]: 0%
melting point: 157 to 158 °C

COc1cccc2c1C(=O)N(Cc1ccccc1)C2=O [Compound 9, 2-Benzyl-4-methoxy-1H-isoindole-1,3(2H)-dione]
inhibition at 1 µM [1]: 0%
inhibition at 1 µM [2]: 6 ± 2%
inhibition at 3 µM [3]: 0%
inhibition at 10 µM [3]: 0%
melting point: 167 to 168 °C

O=C1c2ccccc2C(=O)N1CCc1nc2ccccc2[nH]1 [Compound 20, 2-[2-(1H-Benzimidazol-2-yl)ethyl]-1H-isoindole-1,3(2H)-dione]
inhibition at 1 µM [1]: 36%
inhibition at 1 µM [2]: 26 ± 2%
inhibition at 3 µM [3]: 0%
inhibition at 10 µM [3]: 1%
melting point: 202 to 203 °C

COc1cccc2c1C(=O)N(CCCc1ccccc1)C2=O [Compound 16, 4-Methoxy-2-(3-phenylpropyl)-1H-isoindole-1,3(2H)-dione]
inhibition at 1 µM [1]: 14%
inhibition at 1 µM [2]: 32 ± 3%
inhibition at 3 µM [3]: 11%
inhibition at 10 µM [3]: 13%
melting point: 94 to 95 °C
